Tests used:
[1] = system: HCT116 (colon) cancer cells; assay: In vitro cytotoxic activity MTT assay, HCT116; format: cell-based; conditions: Homo sapiens, HCT-116, exposed for 96 hours, 50% inhibition of cell proliferation, read-out: Cytotoxicity IC50, HCT116 (colon)
Protocol: (§1) Compounds 1-12 were screened for their in vitro cytotoxic activity utilizing a 3-(4,5-dimethyl-thiazol-2-yl)-2,5-diphenyltetrazolium bromide (MTT) assay against selected cancer human cell lines consisting of PC3 (prostate), HCT116 (colon), A375 (melanoma), H1299 (lung), MIAPaCa-2 (pancreas), HL60 (leukemia), MCF7 (breast), MDA-MB-231 (breast) (T. Mosmann, J. Immunol. Meth., 1983, 65, 55-63). The cells were cultured at 37° C. in RMPI1640 medium supplemented with 10% fetal bovine serum, 50 IU/mL penicillin, and 50 μg/mL streptomycin in a 5% CO2 incubator. All cells were sub-cultured 3 times/week by trypsinisation. Viable cells were seeded and allowed to adhere for 12 h before a test drug was added in 96-well plates at an initial density of 1.0×10^5 cells/mL. Tumour cell lines were separately exposed to various concentrations of the tested compounds followed by incubation at a temperature of 37° C. during 96 h inside a medium of fresh RMPI 1640. Cells were subsequently incubated at 37° C. using MTT at 0.5 mg/mL during 4 h. After removal of supernatant, formazan crystals were dissolved in isopropanol and the optical density was measured at 570 nm. CX-4945 was used as a positive control.

[2] = system: HL60 (leukemia) cancer cells; assay: In vitro cytotoxic activity MTT assay, HL60; format: cell-based; conditions: Homo sapiens, HL-60, exposed for 96 hours, 50% inhibition of cell proliferation, read-out: Cytotoxicity IC50, HL60 (leukemia)
Protocol: as §1

[3] = system: MCF7 (breast) cancer cells; assay: In vitro cytotoxic activity MTT assay, MCF7; format: cell-based; conditions: Homo sapiens, exposed for 96 hours, 50% inhibition of cell proliferation, read-out: Cytotoxicity IC50, MCF7 (breast)
Protocol: as §1

[4] = system: A375 (melanoma) cancer cells; assay: In vitro cytotoxic activity MTT assay, A375; format: cell-based; conditions: Homo sapiens, A-375, exposed for 96 hours, 50% inhibition of cell proliferation, read-out: Cytotoxicity IC50, A375 (melanoma)
Protocol: as §1

[5] = molecular target: T1, recombinant human CK2 (RRββ-holoenzyme) (Homo sapiens, UniProt P68400); assay: CK2 Kinase Assay (33P-ATP, filter plate); format: biochemical; conditions: final ATP concentration 15 μM, 10 min at 30° C, eight concentrations; read-out: protein kinase CK2 IC50
T1 construct: purchased Millipore
T1 sequence (P68400 whole entry): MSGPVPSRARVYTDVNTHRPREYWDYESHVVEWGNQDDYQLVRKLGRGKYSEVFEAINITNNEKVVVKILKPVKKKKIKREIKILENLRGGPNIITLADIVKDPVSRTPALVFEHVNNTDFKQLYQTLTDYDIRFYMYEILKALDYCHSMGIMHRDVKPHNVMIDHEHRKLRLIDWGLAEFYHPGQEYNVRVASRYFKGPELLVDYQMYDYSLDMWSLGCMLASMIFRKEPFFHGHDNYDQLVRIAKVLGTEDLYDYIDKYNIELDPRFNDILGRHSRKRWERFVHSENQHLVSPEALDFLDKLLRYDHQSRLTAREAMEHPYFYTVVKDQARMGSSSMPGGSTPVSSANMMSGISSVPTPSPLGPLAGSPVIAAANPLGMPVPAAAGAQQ
T1 sequence (P67870 whole entry partner): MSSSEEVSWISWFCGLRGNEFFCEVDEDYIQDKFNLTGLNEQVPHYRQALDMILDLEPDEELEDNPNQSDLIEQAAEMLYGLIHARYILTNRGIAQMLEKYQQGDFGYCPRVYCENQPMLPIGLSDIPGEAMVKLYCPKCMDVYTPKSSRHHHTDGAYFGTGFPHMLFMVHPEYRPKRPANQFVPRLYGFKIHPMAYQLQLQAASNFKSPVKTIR
Protocol: CK2 Kinase Assay was conducted using the protocol as described in Pierre F. et al; J. Med. Chem. 2011, 54, 635-654. The tested compounds in aqueous solution were added at a volume of 10 μL to a reaction mixture comprising 10 μL of assay dilution buffer (ADB; 20 mM MOPS, pH 7.2, 25 mM β-glycerol phosphate, 5 mM EGTA, 1 mM sodium orthovanadate, and 1 mM dithiothreitol), 10 μL of substrate peptide (RRRDDDSDDD, dissolved in ADB at a concentration of 1 mM), 10 μL of recombinant human CK2 (RRββ-holoenzyme, 25 ng dissolved in ADB; Millipore). Reactions were initiated by the addition of 10 μL of ATP solution (90% 75 mM MgCl2, 75 μM ATP (final ATP concentration: 15 μM) dissolved in ADB; 10% [γ-33P] ATP (stock 1 mCi/100 μL; 3000 Ci/mmol (Perkin-Elmer) and maintained for 10 min at 30° C. The reactions were quenched with 100 μL of 0.75% phosphoric acid and then transferred to and filtered through a phosphor cellulose filter plate (Millipore). After washing each well five times with 0.75% phosphoric acid, the plate was dried under vacuum for 5 min and, following the addition of 15 μL of scintillation fluid to each well, the residual radioactivity was measured using a Wallac […] counter. The IC50 values were derived from eight concentrations of test inhibitors.

[6] = system: MDA-MB-231 (breast) cancer cells; assay: In vitro cytotoxic activity MTT assay, MDA-MB-231; format: cell-based; conditions: Homo sapiens; MDA-MB-231 cells, exposed for 96 hours, 50% inhibition of cell proliferation; read-out: Cytotoxicity IC50, MDA-MB-231 (breast)
Protocol: as §1

[7] = system: H1299 (lung) cancer cells; assay: In vitro cytotoxic activity MTT assay, H1299; format: cell-based; conditions: Homo sapiens, NCI-H1299, exposed for 96 hours, 50% inhibition of cell proliferation, read-out: Cytotoxicity IC50, H1299 (lung)
Protocol: as §1

[8] = system: MIAPaCa-2 (pancreas) cancer cells; assay: In vitro cytotoxic activity MTT assay, MIAPaCa-2; format: cell-based; conditions: Homo sapiens, MIA PaCa-2; MIAPaCa-2 cells, exposed for 96 hours, 50% inhibition of cell proliferation; read-out: Cytotoxicity IC50, MIAPaCa-2 (pancreas)
Protocol: as §1

[9] = system: PC3 (prostate) cancer cells; assay: In vitro cytotoxic activity MTT assay, PC3; format: cell-based; conditions: Homo sapiens, PC-3, exposed for 96 hours, 50% inhibition of cell proliferation, read-out: Cytotoxicity IC50, PC3 (prostate)
Protocol: as §1

Q: What does the source list for Clc1cccc(Nc2nc3cnccc3c3nc4cnccn4c23)c1 [Compound 1, N-(3-chlorophenyl)pyrazino[2′,1′:2,3]imidazo[4,5-c][1,7]naphthyridin-6-amine]?
A: IC50 [1]: 1400 nM; IC50 [2]: 3300 nM; IC50 [3]: 5600 nM; IC50 [4]: 3100 nM; IC50 [5]: 18 nM; IC50 [6]: 4800 nM; IC50 [7]: 1900 nM; IC50 [8]: 1200 nM; IC50 [9]: 1100 nM
